{"source": "patent US20080167325A1", "about": "“VALACYCLOVIR COMPOSITIONS” (priority 2006, published 2008)", "origin": "cited, not measured here", "key": {"[1]": {"settings": "first-pass hepatic metabolism through enzymatic hydrolysis"}, "[2]": {"tested_on": "cytochrome P450 enzymes"}, "[3]": {"settings": "compared with acyclovir"}}, "data": [{"molecule": "CC(C)[C@H](N)C(=O)OCCOCn1cnc2c(=O)[nH]c(N)nc21", "note": "[Valacyclovir, L-valine, 2-[(2-amino-1,6-dihydro-6-oxo-9H-purin-9-yl)methoxy]ethyl ester]", "values": [{"measurement": "converted to the active compound, acyclovir, and L-valine", "setting": "[1]", "value": "~99", "unit": "%"}, {"measurement": "metabolized by cytochrome P450 enzymes", "setting": "[2]", "value": "Neither valacyclovir nor acyclovir is metabolized"}, {"measurement": "bioavailability", "setting": "[3]", "value": "much improved bioavailability"}]}]}
